Measurements reported in patent US20230128194A1, “METHODS AND COMPOSITIONS TO ALTER HEPATIC GABA RELEASE TO TREAT OBESITY-RELATED CONDITIONS” (ARIZONA BOARD OF REGENTS ON BEHALF OF THE UNIVERSITY OF …, priority 2017, published 2023).

Tests used:
Assay type in all cases: in vivo, mouse
lean mice = experiment: GABA-T inhibitors (8 mg/day oral gavage) in lean mice: glucose homeostasis
Method: (§1) All animal studies were conducted using male wildtype C57BL/6J mice purchased from Jackson Laboratories or bred in-house (Bar Harbor, Me.). Mice were kept on a 14-hour light/10-hour dark schedule and housed 3-5 mice per cage until 1 week prior to study initiation, at which point animals were individually housed. Studies were conducted in lean chow fed mice (7013 NIH-31, Teklad WI, 3.1 kcal/g, 18% kcal from fat, 59% kcal from carbohydrate, 23% kcal from protein) at 12-16 weeks of age. Studies in diet-induced obese mice dosed intraperitoneally with GABA transaminase inhibitors, mice treated with ethanolamine-O-sulfate in their drinking water, and mice treated with GABA-T targeted or scramble control antisense oligonucleotides (ASO) were performed after 8-10 weeks on a high fat diet (TD 06414, Teklad WI, 5.1 kcal/g, 60.3% kcal from fat, 21.3% kcal from carbohydrate, 18.4% kcal from protein; 20-26 weeks of age). For ASO studies, mice were stratified by body weight and assigned to an injection treatment (control or GABA-T). Studies in obese vagotomy and sham mice were performed after 9 weeks of high fat diet feeding. Unless fasted, mice had ad libitum access to food and water. All studies were approved by The University of Arizona Institutional Animal Care and Use Committee.
(§2) Wildtype lean and obese mice were randomly divided into treatment groups and dosed daily with 8 mg of ethanolamine-O-sulfate (EOS; Sigma-Aldrich, St. Louis, Mo.), vigabatrin (United States Pharmacopeia, Rockville, Md.) or PBS. Obese sham and vagotomy mice were dosed daily with 8 mg of EOS. In all cases, basal bleeds were taken prior to initiation of an ITT. Lean mice received treatment by oral gavage (0.3 mL/mouse) while obese mice were treated by intraperitoneal injection (0.3 mL/mouse). Pre-treatment studies were conducted in the week immediately prior to beginning drug administration. Daily doses took place at 9 am each day and oral glucose tolerance tests (OGTT) and insulin tolerance tests (ITT) were performed on the third and fourth days of treatment in lean mice, respectively. In wildtype obese mice, OGTT and ITT were performed on the fourth day of treatment in separate cohorts. On the fifth day of treatment, 2DG clearance studies were performed. In sham/vagotomy mice, OGTT and ITT were performed on the fourth and fifth day of treatment, respectively. After a 2-week washout period without treatment injection, a basal bleed and bleed 15 minutes after an oral glucose gavage ([…]) to determine oral glucose stimulated insulin secretion were performed.
(§3) Oral glucose (2.5 g/kg; 0.1 mL/10 g body weight; Chem-Impex Int'l Inc., Wood Dale, Ill.) was given to 4 hour fasted individually housed mice. All glucose tolerance tests began at […] and glucose was measured in whole blood, collected from the tail vein, by glucometer (Manufacture #D2ASCCONKIT, Bayer, Leverkusen, Germany) at 0, 15, 30, 60, 90, and 120 minutes after glucose gavage. Blood for serum insulin (oral glucose stimulated insulin secretion; OGSIS) and glucose determination was collected from the tail vein 15 minutes following glucose administration.
(§4) Intraperitoneal insulin (0.5 U/kg; 0.1 mL/10 g body weight; Sigma Aldrich, St. Louis, Mo.) was given to 4 hour fasted individually housed mice. All insulin tolerance tests began at […] and glucose was measured in whole blood, collected from the tail vein, by glucometer (Manufacture #D2ASCCONKIT, Bayer, Leverkusen, Germany) at 0, 30, 60, 90, and 120 minutes after insulin injection.
(§5) Within 2 hours of collection, blood was left to clot at room temperature for 20 minutes. Thereafter, the blood was centrifuged at 3,000×g for 30 minutes at 4° C. and serum was collected. Serum was stored at −80° C. until metabolite and hormone analyses. A colorimetric assay was used to analyze serum glucose (Cat. #G7519, Pointe Scientific Inc., Canton Mich.). Serum insulin was analyzed by enzyme-linked immunosorbent assay (ELISA; Cat. #80-INSMSU-E01,E10, Alpco, Salem, N.H.). […]

diet-induced obese mice [1] = experiment: EOS in drinking water (3 g/L) in obese mice: glucose homeostasis, body mass
Method: In a separate set of studies, an ITT was performed in obese mice to establish insulin resistance. Subsequently, EOS was provided ad libitum in the water (3 g/L) for 4 days. An OGTT and ITT were performed on days 3 and 4 of treatment, respectively. The water was then removed, and an ITT was performed 2 weeks later to establish the timing of restoration of insulin resistance after drug removal.
as §3, §4

[2] = tested on: high fat diet-induced obese mice; experiment: GABA-T inhibitors (8 mg/day IP) in HFD-induced obese mice: body weight, serum insulin/glucose/glucagon, OGTT, ITT
Method: as §1, §2, §3, §4, §5

diet-induced obese mice [3] = experiment: body composition by EchoMRI in EOS treated mice; details: 3 g/L in drinking water, day 7 vs day 0
Method: Body composition was assessed in diet-induced obese mice on day 0 and 7 days after continuous provision of EOS in the drinking water (3 g/L) using an EchoMRI 900 with A10 insert for mice. Calibration was performed daily and had the water stage set to on.

[4] = 8 mg/day IP, four days, relative to pre-treatment

Compound: NCCOS(=O)(=O)O [EOS, ethanolamine-O-sulfate]
- serum glucose (lean mice): decreased
- glucose tolerance (lean mice; 8 mg/day): no effect
- insulin sensitivity (lean mice; 8 mg/day): no effect
- serum insulin concentrations (lean mice; 8 mg/day): no effect
- glucose homeostasis (lean mice; acute): does not alter
- response after withdrawal (diet-induced obese mice [1]; 2 weeks without EOS in the drinking water): washed out
- body mass (diet-induced obese mice [1]; diet-induced obese mice, 3 g/L in drinking water, 7 weeks): dramatically decreased
- measures of glucose homeostasis (diet-induced obese mice [1]; obese mice, 3 g/L in drinking water, 4 days): similarly improved
- glucose:insulin ratio [2, 4]: increased
- serum glucose [2, 4]: decreased
- serum insulin [2, 4]: decreased
- body weight ([2]; 8 mg/day IP, through 5 days, vs saline injected mice): remained similar
- serum glucagon ([2]; 5 days, relative to control mice): decreased
- glucose stimulated serum insulin ([2]; treatment day 4, relative to pre-treatment): tended to be decreased
- glucose stimulated serum insulin after washout ([2]; two-weeks washout): markedly increased
- serum insulin and glucose:insulin ratio after washout ([2]; two-weeks washout): return of serum insulin and the glucose:insulin ratio to pre-treatment levels
- insulin sensitivity assessed by insulin tolerance test (ITT) ([2]; within 4 days of initiating treatment): improved
- decrease of fat mass (diet-induced obese mice [3]): 16.27%
- decrease of lean mass (diet-induced obese mice [3]): 6.15%
- decrease of total body mass (diet-induced obese mice [3]): 10%
